Target: Nav 1.7 (Homo sapiens (Human), UniProt Q15858)
Assay: Nav 1.7 IWQ in vitro assay (IonWorks Quattro population patch-clamp)
Type: cell-based
Conditions: for IC50: 293 cells stably transfected with Nav 1.7, second part of table, read-out: Nav1.7 IWQ IC50 IP
Procedure: Nav 1.7 or Nav 1.5 IWQ In Vitro Assay
293 Cells stably transfected with either Nav 1.7 or Nav 1.5 were recorded in population patch-clamp mode with the IonWorks® Quattro automated electrophysiology system in accordance with the manufacturer's specifications (Molecular Devices, LLC, Sunnyvale, Calif.). Sodium channel currents were measured in response to a train of depolarizations that induced successively greater inactivation.
Cells were then left unclamped for a period of 3 to 8 minutes while a single concentration of test compound was added. Cells were then reclamped and put through the same voltage protocol. Current at the end of the 26th pulse to −20 mV was subtracted from the peak current evoked by the 26th pulse to −20 mV to correct for leak current. Percent block was calculated for each concentration in duplicate, and IC50 curves were fitted to percent block as a function of concentration.

Nav 1.7, sequence (Q15858 whole entry): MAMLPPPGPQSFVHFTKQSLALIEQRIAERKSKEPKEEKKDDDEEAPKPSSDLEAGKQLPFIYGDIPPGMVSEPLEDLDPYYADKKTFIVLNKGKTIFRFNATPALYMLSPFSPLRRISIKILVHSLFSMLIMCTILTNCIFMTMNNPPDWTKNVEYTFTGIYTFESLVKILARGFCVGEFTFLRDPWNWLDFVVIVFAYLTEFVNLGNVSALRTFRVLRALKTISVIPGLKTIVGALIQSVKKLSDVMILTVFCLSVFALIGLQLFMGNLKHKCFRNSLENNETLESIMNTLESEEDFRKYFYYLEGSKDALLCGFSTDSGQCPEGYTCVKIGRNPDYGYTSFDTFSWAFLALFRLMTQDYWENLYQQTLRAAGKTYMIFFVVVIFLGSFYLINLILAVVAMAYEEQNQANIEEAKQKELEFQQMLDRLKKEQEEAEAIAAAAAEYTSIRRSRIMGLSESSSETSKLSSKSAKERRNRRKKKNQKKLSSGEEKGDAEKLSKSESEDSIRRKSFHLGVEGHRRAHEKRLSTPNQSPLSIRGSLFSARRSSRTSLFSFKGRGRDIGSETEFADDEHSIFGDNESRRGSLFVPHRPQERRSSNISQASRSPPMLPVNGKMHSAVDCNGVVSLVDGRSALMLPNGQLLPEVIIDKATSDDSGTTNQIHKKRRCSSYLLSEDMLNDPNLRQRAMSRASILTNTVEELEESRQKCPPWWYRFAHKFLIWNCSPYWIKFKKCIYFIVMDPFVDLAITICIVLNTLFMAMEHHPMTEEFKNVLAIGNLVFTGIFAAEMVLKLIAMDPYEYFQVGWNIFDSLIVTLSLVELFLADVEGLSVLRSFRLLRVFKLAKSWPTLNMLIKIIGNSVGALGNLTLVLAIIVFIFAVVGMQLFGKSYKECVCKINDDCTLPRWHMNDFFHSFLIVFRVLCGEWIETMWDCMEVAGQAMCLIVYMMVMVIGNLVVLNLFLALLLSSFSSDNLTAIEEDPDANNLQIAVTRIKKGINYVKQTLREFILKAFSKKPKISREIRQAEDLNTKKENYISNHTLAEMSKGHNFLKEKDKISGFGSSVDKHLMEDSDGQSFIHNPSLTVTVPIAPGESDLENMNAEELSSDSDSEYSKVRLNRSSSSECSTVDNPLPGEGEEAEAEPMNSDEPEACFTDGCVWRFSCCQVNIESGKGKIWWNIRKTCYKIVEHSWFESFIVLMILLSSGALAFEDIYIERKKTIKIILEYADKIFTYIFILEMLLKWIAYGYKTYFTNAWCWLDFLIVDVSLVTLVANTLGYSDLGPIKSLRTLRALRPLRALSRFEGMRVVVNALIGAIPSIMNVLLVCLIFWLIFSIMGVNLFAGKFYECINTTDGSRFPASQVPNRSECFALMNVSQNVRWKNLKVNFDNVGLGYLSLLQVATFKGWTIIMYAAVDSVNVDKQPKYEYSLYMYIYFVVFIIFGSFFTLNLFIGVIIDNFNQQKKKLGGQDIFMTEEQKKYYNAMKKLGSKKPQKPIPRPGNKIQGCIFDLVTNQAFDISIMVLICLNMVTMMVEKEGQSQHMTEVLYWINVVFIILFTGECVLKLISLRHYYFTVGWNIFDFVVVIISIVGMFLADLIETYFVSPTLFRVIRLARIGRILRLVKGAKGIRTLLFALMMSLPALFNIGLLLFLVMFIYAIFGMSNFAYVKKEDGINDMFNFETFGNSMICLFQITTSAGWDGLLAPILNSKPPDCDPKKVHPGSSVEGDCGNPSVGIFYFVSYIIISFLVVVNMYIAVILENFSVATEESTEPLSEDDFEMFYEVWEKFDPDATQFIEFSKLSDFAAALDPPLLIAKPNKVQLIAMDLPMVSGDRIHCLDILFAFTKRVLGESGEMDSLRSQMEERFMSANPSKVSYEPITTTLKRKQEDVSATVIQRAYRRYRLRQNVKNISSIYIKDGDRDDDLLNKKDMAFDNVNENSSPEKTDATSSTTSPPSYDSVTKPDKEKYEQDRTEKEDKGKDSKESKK

| SMILES | IC50 | Nav1.7 Single Point Data IWQ (at […]) (%) |
| --- | --- | --- |
| Cn1cc(CCOc2nccc3cc(S(=O)(=O)Nc4ccncn4)ccc23)cn1 [Example 305, 1-(2-(1-METHYL-1H-PYRAZOL-4-YL)ETHOXY)-N-(PYRIMIDIN-4-YL)ISOQUINOLINE-6-SULFONAMIDE] | > 10 µM | 24% |
| Cn1ncc2cccc(-c3nccc4cc(S(=O)(=O)Nc5ccncn5)ccc34)c21 [Example 306, 1-(1-METHYL-1H-INDAZOL-7-YL)-N-(PYRIMIDIN-4-YL)ISOQUINOLINE-6-SULFONAMIDE] | > 10 µM | 35% |
| Cc1c(-c2nccc3cc(S(=O)(=O)Nc4ccncn4)ccc23)ccc2c1cnn2C [Example 307] | > 10 µM | 40% |
| Cc1cc2c(cnn2C)cc1-c1nccc2cc(S(=O)(=O)Nc3ccncn3)ccc12 [Example 308] | > 10 µM | 45% |
| Cc1ccc2c(cnn2C)c1-c1nccc2cc(S(=O)(=O)Nc3ccncn3)ccc12 [Example 309] | > 10 µM | 27% |
| O=S(=O)(Nc1ccncn1)c1ccc2c(-c3cccc4cccnc34)nccc2c1 [Example 310, N-(PYRIMIDIN-4-YL)-1-(QUINOLIN-8-YL)ISOQUINOLINE-6-SULFONAMIDE] | > 10 µM | 46% |
| Cc1noc(C)c1-c1nccc2cc(S(=O)(=O)Nc3ccncn3)ccc12 [Example 311, 1-(3,5-DIMETHYLISOXAZOL-4-YL)-N-(PYRIMIDIN-4-YL)ISOQUINOLINE-6-SULFONAMIDE] |  | 29% |
| Cn1nc(C(F)(F)F)cc1-c1nccc2cc(S(=O)(=O)Nc3ccncn3)ccc12 [Example 312, 1-(1-METHYL-3-(TRIFLUOROMETHYL)-1H-PYRAZOL-5-YL)-N-(PYRIMIDIN-4-YL)ISOQUINOLINE-6-SULFONAMIDE] | > 10 µM | 47% |
| COc1nccc(NS(=O)(=O)c2ccc3c(-c4ccc(C(F)(F)F)cc4OC)nccc3c2)n1 [Example 313, 1-(2-METHOXY-4-(TRIFLUOROMETHYL)PHENYL)-N-(2-METHOXYPYRIMIDIN-4-YL)ISOQUINOLINE-6-SULFONAMIDE] | > 10 µM | 39% |
| COc1cc(C(F)(F)F)ccc1-c1nccc2cc(S(=O)(=O)NC(C)=O)ccc12 [Example 314, N-((1-(2-METHOXY-4-(TRIFLUOROMETHYL)PHENYL)ISOQUINOLIN-6-YL)SULFONYL)ACETAMIDE] | > 10 µM | 39% |
| Cn1ccnc1-c1nccc2cc(S(=O)(=O)Nc3nccs3)ccc12 [Example 315, 1-(1-METHYL-1H-IMIDAZOL-2-YL)-N-(THIAZOL-2-YL)ISOQUINOLINE-6-SULFONAMIDE 2,2,2-TRIFLUOROACETATE] | > 10 µM | 37% |
| O=S(=O)(Nc1ccncn1)c1ccc2c(C3CCCN3C3CCOCC3)nccc2c1 (stereo not drawn) [Example 316, N-(PYRIMIDIN-4-YL)-1-(1-(TETRAHYDRO-2H-PYRAN-4-YL)PYRROLIDIN-2-YL)ISOQUINOLINE-6-SULFONAMIDE 2,2,2-TRIFLUOROACETATE] | > 10 µM | 26% |
| N#Cc1cccc2cc(S(=O)(=O)Nc3ncns3)ccc12 [Example 317] | > 10 µM | 30% |
| Cc1nsc(NS(=O)(=O)c2ccc3c(-c4ccc(Cl)cc4C)nccc3c2)n1 [Example 356] |  | 27% |
| Cc1cnc(OCc2ccccc2)c(-c2nccc3cc(S(=O)(=O)Nc4nccs4)ccc23)c1 [Example 380, 1-(2-(BENZYLOXY)-5-METHYLPYRIDIN-3-YL)-N-(THIAZOL-2-YL)ISOQUINOLINE-6-SULFONAMIDE] |  | 40% |
| Cc1cnc(OCC2CCC2)c(-c2nccc3cc(S(=O)(=O)Nc4nccs4)ccc23)c1 [Example 381, 1-(2-(CYCLOBUTYLMETHOXY)-5-METHYLPYRIDIN-3-YL)-N-(THIAZOL-2-YL)ISOQUINOLINE-6-SULFONAMIDE] |  | 26.5% |
| Cc1cnc(OCCN(C)C)c(-c2nccc3cc(S(=O)(=O)Nc4ccncn4)ccc23)c1 [Example 382, 1-(2-(2-(DIMETHYLAMINO)ETHOXY)-5-METHYLPYRIDIN-3-YL)-N-(PYRIMIDIN-4-YL)ISOQUINOLINE-6-SULFONAMIDE] |  | 27.8% |
| Cc1cnc(OC2CCCN(C)C2)c(-c2nccc3cc(S(=O)(=O)Nc4ccncn4)ccc23)c1 (stereo not drawn) [Example 383, 1-(5-METHYL-2-((1-METHYLPIPERIDIN-3-YL)OXY)PYRIDIN-3-YL)-N-(PYRIMIDIN-4-YL)ISOQUINOLINE-6-SULFONAMIDE] |  | 30.2% |
| CC(C)(C#N)c1ccccc1-c1nccc2cc(S(=O)(=O)Nc3nccs3)ccc12 [Example 385, 1-(2-(2-CYANOPROPAN-2-YL)PHENYL)-N-(THIAZOL-2-YL)ISOQUINOLINE-6-SULFONAMIDE] |  | 25.3% |

Next, values leading:

| IC50 | Nav1.7 Single Point Data IWQ (at […]) (%) | SMILES |
| --- | --- | --- |
|  | 20.6% | Cc1cnc(OC[C@@H]2CCOC2)c(-c2nccc3cc(S(=O)(=O)Nc4nccs4)ccc23)c1 [Example 387, (R)-1-(5-METHYL-2-((TETRAHYDROFURAN-3-YL)METHOXY)PYRIDIN-3-YL)-N-(THIAZOL-2-YL)ISOQUINOLINE-6-SULFONAMIDE] |
|  | 19.8% | COc1cc(C(F)(F)F)ccc1-c1nccc2cc(S(=O)(=O)n3ccc(N)n3)ccc12 [Example 390, 1-((1-(2-METHOXY-4-(TRIFLUOROMETHYL)PHENYL)ISOQUINOLIN-6-YL) SULFONYL)-1H-PYRAZOL-3-AMINE] |
|  | 34.8% | COc1cc(C(F)(F)F)ccc1-c1nccc2cc(S(=O)(=O)Nc3cnncn3)ccc12 [Example 391, 1-(2-METHOXY-4-(TRIFLUOROMETHYL)PHENYL)-N-(1,2,4-TRIAZIN-5-YL)ISOQUINOLINE-6-SULFONAMIDE] |
|  | 36.4% | O=S(=O)(Nc1ccncn1)c1ccc2c(N3CCCC(c4cccc(F)c4)C3)nccc2c1 (stereo not drawn) [Example 402, 1-(3-(3-FLUOROPHENYL)PIPERIDIN-1-YL)-N-(PYRIMIDIN-4-YL)ISOQUINOLINE-6-SULFONAMIDE] |
|  | 33.5% | CC1CN(c2cccc(F)c2)CCN1c1nccc2cc(S(=O)(=O)Nc3ccncn3)ccc12 (stereo not drawn) [Example 403, 1-(4-(3-FLUOROPHENYL)-2-METHYLPIPERAZIN-1-YL)-N-(PYRIMIDIN-4-YL)ISOQUINOLINE-6-SULFONAMIDE] |
|  | 35.4% | CC(C)c1ccc2[nH]ncc2c1-c1nccc2cc(S(=O)(=O)Nc3ccncn3)ccc12 [Example 430, 1-(5-ISOPROPYL-1H-INDAZOL-4-YL)-N-(PYRIMIDIN-4-YL)ISOQUINOLINE-6-SULFONAMIDE] |
|  | 20.2% | CN1CCN(Cc2cccc(-c3nccc4cc(S(=O)(=O)Nc5ccncn5)ccc34)c2)CC1 [Example 431, 1-(3-((4-METHYLPIPERAZIN-1-YL)METHYL)PHENYL)-N-(PYRIMIDIN-4-YL)ISOQUINOLINE-6-SULFONAMIDE] |
|  | 34.6% | O=S(=O)(Nc1ccncn1)c1ccc2c(-c3ccc(N4CCCCC4)c(F)c3F)nccc2c1 [Example 432, 1-(2,3-DIFLUORO-4-(PIPERIDIN-1-YL)PHENYL)-N-(PYRIMIDIN-4-YL)ISOQUINOLINE-6-SULFONAMIDE] |
|  | 21.2% | Cc1cc(S(=O)(=O)N(C)C)ccc1-c1nccc2cc(S(=O)(=O)Nc3ccncn3)ccc12 [Example 433] |
|  | 20.0% | O=S(=O)(Nc1ccncn1)c1ccc2c(-c3cccc4cc[nH]c34)nccc2c1 [Example 434, 1-(1H-INDOL-7-YL)-N-(PYRIMIDIN-4-YL)ISOQUINOLINE-6-SULFONAMIDE] |
|  | 27.5% | COc1cc(-c2ccncc2)ccc1-c1nccc2cc(S(=O)(=O)Nc3ccncn3)ccc12 [Example 451, 1-(2-METHOXY-4-(PYRIDIN-4-YL)PHENYL)-N-(PYRIMIDIN-4-YL)ISOQUINOLINE-6-SULFONAMIDE] |
|  | <20% | COc1cc(-c2cnn(C)c2)ccc1-c1nccc2cc(S(=O)(=O)Nc3ccncn3)ccc12 [Example 454, 1-(2-METHOXY-4-(1-METHYL-1H-PYRAZOL-4-YL)PHENYL)-N-(PYRIMIDIN-4-YL)ISOQUINOLINE-6-SULFONAMIDE] |
|  | 24.7% | COc1cc(-c2ncc(Cl)s2)ccc1-c1nccc2cc(S(=O)(=O)Nc3ccncn3)ccc12 [Example 458, 1-(4-(5-CHLOROTHIAZOL-2-YL)-2-METHOXYPHENYL)-N-(PYRIMIDIN-4-YL)ISOQUINOLINE-6-SULFONAMIDE] |
|  | 41.1% | COc1cc(C(=O)CCCCO)ccc1-c1nccc2cc(S(=O)(=O)Nc3ccncn3)ccc12 [Example 463, 1-(4-(5-HYDROXYPENTANOYL)-2-METHOXYPHENYL)-N-(PYRIMIDIN-4-YL)ISOQUINOLINE-6-SULFONAMIDE] |
|  | 24.7% | COc1cc(C(F)(F)F)ccc1-c1nccc2cc(S(=O)(=O)Nc3cc(C(F)(F)F)ncn3)ccc12 [Example 496, 1-(2-METHOXY-4-(TRIFLUOROMETHYL)PHENYL)-N-(6-(TRIFLUOROMETHYL)PYRIMIDIN-4-YL)ISOQUINOLINE-6-SULFONAMIDE] |
|  | <20% | COc1cc(C(F)F)c(F)cc1-c1ncnc2cc(S(=O)(=O)NC3=NCCS3)ccc12 [Example 519, 4-(4-(DIFLUOROMETHYL)-5-FLUORO-2-METHOXYPHENYL)-N-(4,5-DIHYDROTHIAZOL-2-YL)QUINAZOLINE-7-SULFONAMIDE] |
|  | <20% | COc1cc(C(F)(F)F)ccc1-c1ncnc2cc(S(=O)(=O)NC3=NCCS3)ccc12 [Example 520, N-(4,5-DIHYDROTHIAZOL-2-YL)-4-(2-METHOXY-4-(TRIFLUOROMETHYL)PHENYL)QUINAZOLINE-7-SULFONAMIDE] |

Reference: patent US9012443B2 (Amgen Inc., priority 2011, dated 2015)
